Reference: patent US20040038888A1 (priority 2002, published 2004)

Assays:
[1] = tested on: mouse adult neural stem cells; test: Thymidine incorporation, adult mouse NSC, non-adherent culture; assay type: cell-based; details: non-adherent conditions, 3 days, all PACAP treatments relative to controls
Experimental: To determine thymidine incorporation into DNA, neurospheres were split and seeded in Neurosphere medium as single cells in 96-well plates, 10,000 cells/well. Substances to be measured were added in quadruplicates and cells were incubated at 37° C. for 3 days. 3H-thymidine, 10 uCi/ml, was present the last 24 hours. Cells were harvested on to a filter paper and radioactivity was measured. 3H-thymidine (6,7 Ci/mmol) was from PerkinElmer.

CREB phosphorylation [2] = test: Western blot of phosphorylated CREB, undifferentiated aHNSC; assay type: cell-based, human; details: 10 nM PACAP
Experimental: A biopsy from the anterior lateral wall of the lateral ventricle was taken from an adult human patient and enzymatically dissociated in PDD (Papain 2.5 U/ml; Dispase 1 U/ml; Dnase 1 250 U/ml) in DMEM containing 4.5 mg/ml glucose and 37° C. for 20 min. The cells were gently triturated and mixed with three volumes of Human Neural Stem Cell Plating Medium (HNSCPM) (DMEM/F12; 10% fetal bovine serum (FBS)). The cells were pelleted at 250×g for 5 min. The supernatant was subsequently removed and the cells resuspended in HNSCPM, plated out on fibronectin coated culture dishes and incubated at 37° C. in 5% CO2. The following day the expansion of the culture was initiated by change of media to aHNSC culture media (DMEM/F12; BIT 9500; EGF 20 ng/ml; FGF2 20 ng/ml). The aHNSC were split using trypsin and EDTA under standard conditions. FBS was subsequently added to inhibit the reaction and the cells collected by centrifugation at 250×g for 5 min. The aHNSC were replated in aHNSC culture media.
Adult mouse NSC and aHNSC were prepared and cultured as stated in Example 2 (Method A) and Example 1 (Method A). Cultures were exposed to either 10 nM PACAP or EGF (1 nM) and FGF (1 nM) for the times indicated. […] DNA content was detemined by the use of a Pico Green-kit for ds DNA quantitation of cell extracts. […] Phosphorylated CREB protein bands (43 kD) were detected using the ECL-kit (Amersham).

CREB phosphorylation [3] = test: Western blot of phosphorylated CREB, differentiating adult mouse NSC, adherent; assay type: cell-based; details: 10 nM PACAP
Experimental: Adult mouse NSC and aHNSC were prepared and cultured as stated in Example 5 (Method A & B) and Example 2 (Method A), respectively. Cultures were exposed to 10 nM PACAP for the times indicated. After treatment, the cells were lysed in lysis buffer, as shown in Patrone et al. (Patrone, Andersson et al. 1999). DNA content was detemined by the use of a Pico Green-kit for ds DNA quantitation of cell extracts. Total protein measurements were performed with Nano Orange-kit. Equal amounts of protein were run on a gradient gel 4-12% Bis-Tris gel (NuPage/Mops buffer) and transferred to a nitrocellulose membrane. Western blot was performed and phosphorylated CREB was labelled using a rabbit anti phospho-CREB (1:1000, Upstate biotechnology), a secondary anti rabbit HRP antibodies (1:10.000). Phosphorylated CREB protein bands (43 kD) were detected using the ECL-kit (Amersham).

## pituitary adenylate cyclase-activating polypeptide [PACAP]
[1]
  incorporation of tritiated thymidine: Greater incorporation of tritiated thymidine
CREB phosphorylation [2]; 15 min
  CREB phosphorylation: strong upregulation
CREB phosphorylation [2]; 240 min
  CREB phosphorylation: slightly above basal levels
CREB phosphorylation [3]; 15 min exposure
  CREB phosphorylation: upregulated
CREB phosphorylation [3]; 240 min
  CREB phosphorylation: slightly above basal levels
